# Measured values: patent publication US20070203228A1, “Method for treating chronic obstructive pulmonary disease” (SUCAMPO AG, priority 2006, published 2007)
# “Also recorded” adds a separate entry of the source. Marks after values point to notes of the source that are not given here.
# Experiments:
# [1] = test system: Human lung alveolar type II cells (A549); assay: Cytochrome c translocation after cigarette smoke extract (CSE) treatment, cytochrome c ELISA; assay type: cell-based
# Method: Smoke from 8 cigarettes was drawn slowly through 100 ml of serum free culture medium and the resulting suspension was filtered through 0.20 μm filter. The solution was considered as 100% cigarette smoke extract (CSE). Human lung alveolar type II cells (A549) were grown in 96 well plates for 48 hrs at a final concentration of 1.5×10^5 cells per well. The cells were then treated separately with either 100 nM Compound A or 1%, 2.5% and 5% CSE. In other sets, 100 nM Compound A was added along with 1%, 2.5% or 5% CSE. All incubations were done at 37° C. for 24 hrs. After 24 hr treatment, the cells were washed with 0-4° C. PBS three times. Measurement of cytochrome c that was translocated into the cytosol, a marker of cellular injury, was performed according to the instructions provided with a kit for cytochrome c ELISA assay.
# [2] = test system: cigarette smoke-exposed guinea pigs; assay: Specific airway resistance (sRaw) in cigarette smoke-exposed guinea pigs; assay type: in vivo, guinea pig; details: for Specific airway resistance (sRaw) Mean ± S.D.: 30 min from 1 hr before smoke exposure, Days 1 to 25, measured Day 26, n=7, control 2.154 ± 0.365, sham 1.131 ± 0.149
# Description: (§1) Guinea pigs were exposed to cigarette smoke using a smoking system (INH06-CIG01A, M.I.P.S. Inc.). Each animal was placed in an exposure holder, and the holder was fixed in an exposure chamber. Cigarette smoke of 30 cigarettes per day (Peace®, Japan Tobacco Inc.) was drawn from a smoke generator into the exposure chamber, 5 days per week, for 25 days (Days 1 to 25). In a sham exposure group, the atmospheric air, instead of cigarette smoke, was drawn into the exposure chamber.
# (§2) Aqueous solution of Compound A (13,14-dihydro-15-keto-16,16-difluoro-18(S)-methyl-PGE1) was vaporized using a pressurized nebulizer (LC Plus Nebulizer, Pari GmbH) and inhaled by the animals in a chamber of an inhalation system (SIS-A, Sibata Scientific Technology Ltd.) for 30 minutes from 1 hr before the cigarette smoke exposure.
# Specific airway resistance (sRaw) of conscious animals was measured by a double flow plethysmo-graph technique with a respiratory function measurement system (Pulmos-1, M.I.P.S Inc.) on Day 26.
# [3] = test system: cigarette smoke-exposed guinea pigs; assay: Pulmonary function (RV, FEV100) in cigarette smoke-exposed guinea pigs; assay type: in vivo, guinea pig
# Description: as §1, §2
# After the sRaw measurements, animals were anesthetized with ketamine (60 mg/kg) and xylazine (8 mg/kg), and the trachea was cannulated. Pulmonary function was measured using a pulmonary function measurement system (Biosystem Manoeuvers, Buxco Electronics, Inc.). The parameters of measurement consisted of residual volume (RV) and forced expiratory volume at 100 msec (FEV100).
# [4] = test system: cigarette smoke-exposed guinea pigs; assay: Macrophage (monocyte) count in bronchoalveolar lavage fluid of cigarette smoke-exposed guinea pigs; assay type: in vivo, guinea pig
# Description: as §1, §2
# After the measurement of pulmonary function, the animals were sacrificed by exsanguination under anesthesia and the thorax was opened. Five milliliters of saline were instilled into the lungs through a tracheal cannula, and the lavage fluid was recovered by gentle aspiration. This procedure was repeated and the recovered lavage fluid was combined (10 mL in total, bronchoalveolar lavage fluid, BALF). The number of macrophages (monocyte) in the BALF was counted.
# [5] = compared with the control group
smiles,measurement,setting,value
"CC[C@H](C)CC(F)(F)C(=O)CC[C@H]1[C@H](O)CC(=O)[C@@H]1CCCCCCC(=O)O [Compound A, 13,14-dihydro-15-keto-16,16-difluoro-18(S)-methyl-PGE1]","Cytosolic cytochrome c, compound alone","[1]; 100 nM Compound A alone, no CSE, 24 hours",Neither 0.1% DMSO (B) (vehicle for Compound A) nor Compound A (C) alone significantly affected cytosolic cytochrome c
same,Cytochrome c translocation induced by CSE,"[1]; 100 nM Compound A with 1%, 2.5% and 5% CSE, 24 hrs, compared to DMSO control (P<0.05, P<002 and P<0.005)",protected against the cytochrome c translocation induced by CSE; also recorded: significantly decreased cytochrome c translocation
same,Effect on increase in sRaw induced by cigarette smoke exposure,[2]; [5],significantly inhibited the increase in sRaw
same,Specific airway resistance (sRaw) Mean ± S.D.,[2]; inhaled aqueous solution 1 μg/mL,1.417 ± 0.226 cmH2O · sec
same,Specific airway resistance (sRaw) Mean ± S.D.,[2]; inhaled aqueous solution 10 μg/mL,1.383 ± 0.241 cmH2O · sec
same,Effect on decrease in FEV100 induced by cigarette smoke exposure,[3]; [5],significantly inhibited these changes
same,Effect on increase in residual volume (RV) induced by cigarette smoke exposure,[3]; [5],significantly inhibited these changes
same,RV (residual volume) Mean ± S.D.,"[3]; inhaled aqueous solution 1 μg/mL, n=7, control 5.44 ± 1.43, sham 2.75 ± 1.45",3.45 ± 1.07 mL
same,FEV100 (forced expiratory volume at 100 msec) Mean ± S.D.,"[3]; inhaled aqueous solution 1 μg/mL, n=7, control 5.75 ± 3.29, sham 9.87 ± 1.17",10.38 ± 1.08 mL
same,Effect on increase in number of macrophages (monocyte) in BALF induced by cigarette smoke exposure,[4]; [5],significantly inhibited the increase in number of macrophages (monocyte)
same,Monocyte/Macrophage count in bronchoalveolar lavage fluid Mean ± S.D.,"[4]; inhaled aqueous solution 1 μg/mL, n=7, control 14.42 ± 3.00, sham 4.52 ± 1.73",10.35 ± 2.53* 10^2 cells/μL
